Our source for the IC50 values is paper PMC6530925 (Nature metabolism, 2019).

This experiment has as its target T1, Slc12a8 (Mus musculus, UniProt Q8VI23).
T1 sequence (Q8VI23 1-705): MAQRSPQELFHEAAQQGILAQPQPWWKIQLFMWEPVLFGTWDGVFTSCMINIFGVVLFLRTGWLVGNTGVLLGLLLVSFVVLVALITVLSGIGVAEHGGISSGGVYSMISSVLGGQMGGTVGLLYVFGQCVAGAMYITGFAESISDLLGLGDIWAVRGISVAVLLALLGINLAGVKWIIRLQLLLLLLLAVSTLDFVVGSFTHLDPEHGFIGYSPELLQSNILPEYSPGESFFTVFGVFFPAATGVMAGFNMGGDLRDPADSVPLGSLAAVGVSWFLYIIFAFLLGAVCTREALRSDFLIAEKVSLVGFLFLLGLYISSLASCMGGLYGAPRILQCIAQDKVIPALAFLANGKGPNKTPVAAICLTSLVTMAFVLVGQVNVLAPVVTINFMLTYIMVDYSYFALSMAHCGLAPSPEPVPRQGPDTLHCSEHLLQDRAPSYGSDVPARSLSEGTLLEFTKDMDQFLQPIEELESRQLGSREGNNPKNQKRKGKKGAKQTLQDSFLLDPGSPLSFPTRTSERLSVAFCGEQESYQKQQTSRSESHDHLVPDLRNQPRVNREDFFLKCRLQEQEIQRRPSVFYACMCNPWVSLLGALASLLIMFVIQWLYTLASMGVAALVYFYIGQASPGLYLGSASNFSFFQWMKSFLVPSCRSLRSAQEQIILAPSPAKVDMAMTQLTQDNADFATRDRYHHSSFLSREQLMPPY
In words: 3H-NMN uptake into Slc12a8-OE proteoliposomes with cold NMN competition. The class given is biochemical.

The compound `NC(=O)c1ccc[n+]([C@@H]2O[C@H](COP(=O)([O-])O)[C@@H](O)[C@H]2O)c1` [NMN, Nicotinamide mononucleotide] came in with an IC50 of 22.8 ± 3.6 µM.
